From patent US20140212478A1, “METHOD FOR PREVENTING AND/OR TREATING PERIODONTAL DISEASE” (priority 2008, published 2014)
Entries after “also recorded” stand apart in the source; their conditions may differ.

Tested on: dental root-periodontal tissue of excised first molar (lower jaw)
Experiment: Effect on dental root-periodontal tissue formation: honokiol-impregnated agarose bead embedded into dental pulp of excised mouse first molar, graft culture under kidney capsule of host mice
Assay type: in vivo, C57BL/6 mice
Source text: Dulbecco' phosphate buffered saline (hereinbelow, it is some times referred to as “D-PBS”) was purchased from Dainippon Pharmaceuticals Inc. Affi-Gel agarose beads (Affigel heparin Cat. No.: 15306173) were purchased from Bio-Rad Laboratories, Inc. Five days age of C57BL/6 mice were purchased from Sankyo Labo Service Corporation. As host mice, 10 to 15 weeks age of C57BL/6 mice (female) were purchased from Sankyo Labo Service Corporation, and used two per group. Since it was know that a kidney and an anterior chamber of eye hardly have immune response among organs in adult mice, it was not necessary to especially use nude mice in graft culture.
Honokiol-impregnated agarose beads were prepared as follows. Honokiol was diluted to the concentration of 10 μM by using D-PBS. The agarose beads were washed with D-PBS.
After washing, four agarose beads were placed in the 1.5 mL tube and 100 μL of the honokiol solution was added into it. Then, the tube was incubated at room temperature for 45 minutes to impregnated honokiol into the agarose beads. As mentioned above, absorptive beads including heparin honokiol impregnation (hereinbelow, it is sometimes referred to as “honokiol-impregnated agarose beads”) were prepared.
Alternatively, another four agarose beads were placed in the 1.5 mL tube and 100 μL of D-PBS was added into it to prepare D-PBS-impregnated agarose beads were prepared, and they were used as negative control.
Five days age of […] mice, where their dental root-periodontal tissue was just before formed, were anesthetized and sacrificed by decapitation. After excised lower jaw of them, the first molars in the lower jaw were excised with dental follicles. One of the honokiol-impregnated agarose beads prepared in the (5-1) was embedded into the dental pulp of the excised teeth, the first molar in the lower jaw.
As the negative control, one of the D-PBS-impregnated agarose beads prepared was embedded into the dental pulp of another excised teeth, the first molar in the lower jaw.
The excised teeth under which the honokiol-impregnated agarose bead was embedded, and that under which the D-PBS impregnated agarose bead was embedded, were respectively grafted under capsule of kidney of the host mice. The host mice were bred under the condition of 12 hours lighting, at room temperature, 25° C., free taking feed and water for three weeks.
After three weeks from grafting of the excised tooth, the host mice were sacrificed by dislocation of cervical vertebrae to excise the kidney to recover the cultured excised tooth (grafted tooth).
Formation of dental root-periodontal tissue (extension), coat of the dental root, and bone of the grafted tooth, which was recovered, were observed under stereoscopic microscope, and then subjected to tomography by using micro CT. […]

## honokiol
Agarose bead impregnated with 10 μM honokiol in D-PBS, embedded into dental pulp, three weeks graft culture under kidney capsule, stereoscopic microscope and micro CT, compared to D-PBS negative control
  extension of dental root (dental root-periodontal tissue formation): prominent extension of dental root; also recorded: excellent promotion effect for dental root-periodontal tissue formation (extension)
Agarose bead impregnated with 10 μM honokiol, embedded into dental pulp, three weeks graft culture under kidney capsule, all graft samples with dental root extension
  bone formation around the newly formed dental root: bone formation around the newly formed dental root were also observed
Agarose bead impregnated with 10 μM honokiol, embedded into dental pulp, three weeks graft culture, soft X-ray / micro CT section
  periodontal ligament-like structure between the dental root and the bone formed: structure similar to periodontal ligamentous band was observed
Pharmaceutical preparation comprising honokiol as the active ingredient, conclusion from graft culture results
  promotion effect for surrounding tissue (periodontal ligament and alveolar bone), overall conclusion: promotion effect for surrounding tissue such as the periodontal ligament and alveolar bone
